Experimental data taken from patent US20100190851A1, “Use of Entacapone in cosmetic, dermatological and pharmaceutical compositions” (priority 2007, published 2010).

Tests used:
[1] = biological target: T1, human P-Selectin-IgG-chimera (Homo sapiens, UniProt P16109); assay: Sialyl Lewis^X Tyrosine Sulfate Assay (sLe^X TSA), P-selectin; settings: binding of P-selectin chimera to sLe^X-tyrosine sulfate polyacrylamide
T1 construct: fused on or other part: human IgG Fc part, fused on as a capture and dimerising handle (captured by goat anti human Fc antibody)
T1 sequence (P16109 42-195 limits assumed): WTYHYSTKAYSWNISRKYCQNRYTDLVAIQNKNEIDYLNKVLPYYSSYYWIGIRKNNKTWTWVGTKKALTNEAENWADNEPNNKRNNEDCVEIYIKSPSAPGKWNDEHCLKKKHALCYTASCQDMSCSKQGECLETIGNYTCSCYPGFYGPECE
Protocol: IC50-values are determined.
Microtiter plates are coated overnight in carbonate buffer pH9.6 with goat anti human Fc mAB (10 μg/ml).
After incubation for 2 h at 37° C., wells are washed for six times with in assay buffer incl. 0.005% Polyoxyethylenesorbitan monolaurate (TWEEN 20), developed for 10-15 min with 20 μl 3,3′,5,5′-tetramethylbenzidine (TMB)/H202 substrate solution and stopped with 20 μl 1 M H2SO4.

[2] = biological target: T2, human L-Selectin-IgG-chimera (Homo sapiens, UniProt P14151); assay: Sialyl Lewis^X Tyrosine Sulfate Assay (sLe^X TSA), L-selectin; settings: binding of L-selectin chimera to sLe^X-tyrosine sulfate polyacrylamide
T2 construct: fused on or other part: human IgG Fc part, fused on as a capture and dimerising handle (captured by goat anti human Fc antibody)
T2 sequence (P14151 39-318 limits assumed): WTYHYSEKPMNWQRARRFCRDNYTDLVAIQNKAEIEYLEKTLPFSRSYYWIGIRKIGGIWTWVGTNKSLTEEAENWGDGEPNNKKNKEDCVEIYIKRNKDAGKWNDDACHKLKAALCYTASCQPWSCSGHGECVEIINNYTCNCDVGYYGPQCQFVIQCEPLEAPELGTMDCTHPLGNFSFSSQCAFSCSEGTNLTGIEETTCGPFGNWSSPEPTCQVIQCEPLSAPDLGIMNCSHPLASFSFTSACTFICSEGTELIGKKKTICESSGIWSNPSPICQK
Protocol: Sialyl Lewis^X Tyrosine Sulfate Assay (sLe^X TSA):
Compound of formula (I) is assayed on a molecular level for the ability to inhibit the binding of P- and L-selectin chimeric molecules to sLe^X and tyrosinesulfate residues linked to a polymeric matrix as a PSGL-1 substitute. IC50-values are determined.
Microtiter plates are coated overnight in carbonate buffer pH9.6 with goat anti human Fc mAB (10 μg/ml). After washing in assay buffer (25 mM 4-(2-hydroxyethyl)-1-piperazineethanesulfonic acid (HEPES), 150 mM NaCl, 1 mM CaCl2 pH7.4) and blocking (3% bovine serum albumin (BSA) in assay buffer) plates are incubated for 2 h at 37° C. with human P-Selectin-IgG-chimera (0.61 nM respectively 150 ng/mL) or human L-Selectin-IgG-chimera (0.61 nM respectively 89 ng/mL). 5 μl of sLe^X-tyrosine sulfate polyacrylamide (1 mg/ml) carrying 15% sLe^X, 10% Tyrosine-sulfate and 5% biotin is complexed with 20 μl Streptavidin-Peroxidase solution (1 mg/ml) and 25 μl assay buffer without CaCl2. […]
After incubation for 2 h at 37° C., wells are washed for six times with in assay buffer incl. […] Bound sLe^X-Tyrosine sulfate ligand complex is determined by measuring optical density at 450 nm vs. 620 nm in a Fusion alpha-FP reader (sold from Packard Bioscience, Dreieich, Germany). […]

[3] = test system: human E-selectin-IgG chimera; assay: Flow chamber assay, attachment of HL-60 cells to E-selectin; type: cell-based; design: dose or concentration left out as unconfirmed; settings: flow shear 1 dyne/cm^2; after 5 minutes continuous flow
Protocol: (§1) Flow Chamber Assay/Cell Adhesion and Rolling under Flow Conditions
(§2) To assess the capability of compound of formula (I) to inhibit cell binding under dynamic conditions resembling the flow in a blood vessel, flow chamber assays addressing/testing binding of HL-60 cells/various cell lines to P-selectin, and E-selectin chimeric molecules are performed.
(§3) Cell attachment under flow conditions is determined using a parallel flow chamber system. […]
(§4) After washing with assay buffer (“Roswell Park Memorial Institute 1640” (RPMI 1640)+10 mM HEPES) the dish is fitted into a parallel plate laminar flow chamber (sold from Glycotech, Rockville, Md.) and mounted on an inverted phase-contrast microscope (sold from Olympus, Hamburg, Germany) equipped with a CCD camera (JVC) that is connected to a PC. […] The flow rate is then decreased resulting in a calculated flow shear of 1 dyne/cm^2. Video sequences of 10 low power fields are digitally recorded after 5 minutes continuous flow. The percentage of inhibition is calculated from the mean number of cells per field that attached to the coated dish surface in the presence versus absence of compound of formula (I) of at independent experiments. […]

[4] = test system: human P-selectin-IgG chimera; assay: Flow chamber assay, attachment of HL-60 cells to P-selectin; type: cell-based; design: dose or concentration left out as unconfirmed; settings: flow shear 1 dyne/cm^2; after 5 minutes continuous flow
Protocol: as §1, §2, §3, §4

[5] = test system: Jurkat T-cells (attachment to E-Selectin); assay: Modulation of T-cells: flow chamber assay with pre-treated Jurkat cells, E-selectin; type: cell-based; settings: cells pre-incubated 5 minutes with compound, washed twice; flow chamber as Example 2
Protocol: (§5) Cell attachment under flow conditions is determined using a parallel flow chamber system. A 35 mm polystyrene culture dish is coated for 1 h at room temperature with coating buffer (50 mM tris-(hydroxymethyl) aminomethane buffer (Tris), 150 mM NaCl, 2 mM CaCl2; pH 7.4) containing human E- or P-selectin-IgG chimera at concentrations of […], respectively. After removal of the coating solution non specific binding sites are blocked for an additional hour with 1% BSA in coating buffer at room temperature.
as §4

[6] = test system: Jurkat T-cells (attachment to P-Selectin); assay: Modulation of T-cells: flow chamber assay with pre-treated Jurkat cells, P-selectin; type: cell-based; settings: cells pre-incubated 5 minutes with compound, washed twice; flow chamber as Example 2
Protocol: as §5, §4

[7] = Skin penetration, parallel artificial membrane permeability assay (skin-PAMPA); type: in vitro ADME
Protocol: To predict passive human skin permeability of compound of formula (I) a parallel artificial membrane permeability assay is performed that mimics the main barrier properties of human stratum corneum (skin-PAMPA).
The filter of the donor compartment of a hydrophobic PVDF 96-well microtiter filter plate (Millipore, Schwalbach, Germany) is coated with a mixture of 70% silicone and 30% isopropyl myristate dissolved in hexane. After evaporation of solvent the donor compartment is filled with buffer (pH 4) containing compound of formula (I) and assembled to the acceptor compartment filled with buffer (pH 4). The assembled plate is incubated at room temperature for 16 hours. Absorbance of compound of formula (I) in the dissembled acceptor compartment is measured with a photometer (Spectramax, Molecular Devices, Sunnyvale, Calif., USA). Permeation (% flux) of compound of formula (I) through the coated filter (artificial membrane) is calculated based on equilibrium absorbance.

[8] = test system: neutrophil infiltration into the peritoneum; assay: Thioglycollate-induced peritonitis in mice; type: in vivo
Protocol: The compound of formula (I) is investigated in a thioglycollate-induced peritonitis model in mice employing standard method (see A. E. R. Hicks et al., J. Leukoc. Biol. 2005, 77, 59-66; M. C. Montesinos et al., Arthritis Res. Ther. 2006, 8(2): R53-R59).
Groups of 10 male mice weighting 24±2 g are used. Peritonitis is induced by intraperitoneal (i.p.) injection of 1 ml 4% thioglycollate medium in 0.9% NaCl to cause neutrophil infiltration into the peritoneum. The compound of formula (I) is dissolved in DMSO, diluted with PBS (phosphate buffered saline) and adjusted to neutral pH with NaOH. The solution of the compound of formula (I) and vehicle is administered intravenously (i.v.) 15 minutes or by oral gavage (p.o.) 60 minutes before thioglycollate medium challenge. The steroid compound Dexamethasone (3 mg/kg, p.o.; known product for rheumatoid arthritis) as the positive control compound is administered by oral gavage 60 minutes before thioglycollate medium challenge.
After 4 hr of induction, neutrophil counts are determined by Automated Hematology Analyzer (provider: Sysmex, XT-2000i equipped with XT-2000iV software) in peritoneal lavage (3 ml PBS) harvested from animals sacrificed by CO2 asphyxiation.
Normal control groups are mock induced by i.p. injection of 0.9% NaCl Inhibition of 30% or more (≧30) in the neutrophil count relative to the vehicle control is considered significant and indicates possible anti-inflammatory activity.
The compound of formula (I) is administered i.v. in different doses, 25 mg/kg, 10 mg/kg, 5 mg/kg, 1 mg/kg, 0.5 mg/kg and 0.25 mg/kg. The compound of formula (I) is also administered p.o. in different doses, 500 mg/kg, 250 mg/kg, 100 mg/kg, 50 mg/kg, 25 mg/kg, 10 mg/kg, 5 mg/kg and 1 mg/kg.

IC50 [1]	IC50 [2]	Permeation (% flux) ([7]; 70% silicone / 30% isopropyl myristate membrane, pH 4, room temperature, 16 hours)	skin penetration (in words) ([7]; skin-penetration assay, Example 4)	Compound	% inhibition of attachment of HL-60 cells, E-Selectin [3]	% inhibition of attachment of HL-60 cells, P-Selectin [4]	% inhibition of attachment of Jurkat cells (pre-treated), E-Selectin [5]	% inhibition of attachment of Jurkat cells (pre-treated), P-Selectin [6]	inhibition of neutrophil influx compared with dexamethasone (3 mg/kg, p.o.) ([8]; depending on the dose)	inhibition of neutrophil influx (in words) ([8]; i.v. 0.25-25 mg/kg or p.o. 1-500 mg/kg, inhibition of 30% or more considered significant)	inhibition of neutrophil influx (inhibition rate) ([8]; i.v. and p.o. at different doses before thioglycollate, neutrophil count 4 hr after induction)
189 µM	1250 µM	>60%	high penetration	CCN(CC)C(=O)/C(C#N)=C/c1cc(O)c(O)c([N+](=O)[O-])c1 [compound of formula (I), (2E)-2-cyano-3-(3,4-dihydroxy-5-nitrophenyl)-N,N-diethylacrylamide]	30%	36%	30%	39%	comparable or better	significant inhibition of neutrophil influx	more than 30%
–	> 3600 µM	–	–	sialyl Lewis X [sLe^X]	–	–	–	–	–	–	–
